From US10683293B2, “Optionally fused heterocyclyl-substituted derivatives of pyrimidine useful for the treatment of inflammatory, metabolic, oncologic and autoimmune diseases” (NUEVOLUTION A/S, priority 2014, dated 2020) come the findings set out here.

The target in experiment [1] is T1, human RORγt (Ligand Binding Domain) (Homo sapiens, UniProt P51449).
T1 construct: purchased Crelux (Planegg, Germany) batch no PC5032-1
T1 sequence (P51449 269-508 limits assumed): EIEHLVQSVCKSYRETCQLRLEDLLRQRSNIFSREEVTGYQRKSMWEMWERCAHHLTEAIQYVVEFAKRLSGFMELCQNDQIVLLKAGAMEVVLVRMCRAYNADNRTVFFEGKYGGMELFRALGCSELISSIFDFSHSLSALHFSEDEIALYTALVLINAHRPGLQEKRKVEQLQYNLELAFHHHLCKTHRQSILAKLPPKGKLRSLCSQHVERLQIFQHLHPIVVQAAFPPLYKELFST
The experiment is described as follows: Fluorescence Polarization (FP) Assay. Conditions: 100 nM human RORγt LBD, 25 nM TAMRA probe, values are activity range bounds. In short, it runs like this:
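Binding to the RORγt ligand-binding domain was followed by FP. Displacement of a TAMRA-tagged RORγt ligand tracer (910 g/mol) was measured, with DMSO-only wells as negative control.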

Experiment [2] concerns the target T2, ligand binding domain of human RORγ (Homo sapiens, UniProt P51449).
T2 construct: host or cells: HEK293t
T2 sequence (P51449 269-508 limits assumed): T1 sequence (P51449 269-508 limits assumed)
The experiment is described as follows: RORγ Reporter Assay (Gal4). The class given is cell-based. Conditions: for inhibition at 1 µM: HEK-293T, read-out: Gal4 activity range @ 1 μM (% inhibition); for Gal4 activity range @ 0.1 μM (% inhibition): RORγ Reporter Assay (Gal4), HEK293t reporter cells, compound at 0.1 μM, values are activity range bounds. Summed up:
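HEK293t cells expressing Gal4 DBD–human RORγ LBD hybrid with Gal4-UAS firefly luciferase reporter; compounds at final 1,000 nM and 100 nM (0.1% DMSO), triplicate, medium with 10% charcoal-stripped FBS, 24 h at 37 °C. Luminescence read; percent reduction of RORγ activity calculated versus vehicle-only wells.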

In a further experiment the test system is female C57BL/6 mice. The experiment is described as follows: Experimental Autoimmune Encephalomyelitis (EAE) Study. Particulars: 30 mg/kg, orally twice daily, from day of EAE induction, 25 days. The class given is in vivo, mouse.
Another experiment deals with male DBA/1J mice. Description: Collagen-Induced Arthritis (CIA) Study. The class given is in vivo, mouse. Conditions: 30 mg/kg, orally twice daily, therapeutic setting (from day 27 until day 41). The source says: Compounds disclosed herein have also been evaluated in two different mouse in vivo disease models: Experimental Autoimmune Encephalomyelitis (EAE) model (an animal model for multiple sclerosis), and Collagen-induced Arthritis (CIA) model (an animal model for rheumatoid arthritis).
Collagen-Induced Arthritis (CIA) Study
Collagen-induced arthritis is an animal model of rheumatoid arthritis used to evaluate the efficacy of test compounds. CIA was induced at Washington Biotechnology Inc. (Baltimore) in male DBA/1J mice (Jackson Laboratories) by subcutaneous injection at the base of the tail with 50 μl of a bovine collagen/complete Freund's adjuvant emulsion. After 21 days, the mice were further boosted by a further subcutaneous injection of 50 μl of a collagen/incomplete Freund's adjuvant emulsion. For treatment, compound or vehicle (2% DMSO, 10% HP-β-CD in MilliQ water) was given orally twice daily at various doses selected from 3, 10, 30 mg/kg, beginning at the day of CIA induction (Prophylactic setting), or after disease initiation (at day 27, therapeutic setting). Treatment lasted until day 41, and the animals were scored three times weekly. Each paw was scored and the sum of all four scores was recorded as the Arthritic Index (AI). […] The Arthritis Index for each treatment can be expressed as the mean score for each treatment group+/−S.E.M.

[3] abbreviates: 1 μM test compound, HEK293t RORγ reporter cells, 24 hour.

The compound `CS(=O)(=O)N1CCC(CNc2ncnc(N(Cc3ccc(C(F)(F)F)cc3)C3CC3)c2F)CC1` [Example A7, N4-cyclopropyl-5-fluoro-N6-[(1-methylsulfonyl-4-piperidyl)methyl]-N4-[[4-(trifluoromethyl)phenyl]methyl] pyrimidine-4,6-diamine] returned an IC50 in experiment [1] of under 500 nM. For the same compound, in experiment [2] (setting [3]), the inhibition at 1 µM was over 80%. Moreover, the “Gal4 activity range @ 0.1 μM (% inhibition)” value in experiment [2] was over 80 % inhibition. In the experiment with female C57BL/6 mice, the EAE clinical score entry is on record as “significantly lower the clinical score” and the “onset of EAE” value is “delay onset”. For the same compound, in the experiment on male DBA/1J mice, the “disease severity (CIA, Arthritic Index)” value is “significantly reduce disease severity” and the “rate of disease development (CIA)” value is reported as “decrease rate of disease development”.

As for `CCCn1nc(C)cc1CN(C)c1ncnc(NCc2ccc(CC(N)=O)cc2)c1F` [Example A68, 2-[4-[[[5-fluoro-6-[methyl-[(5-methyl-2-propyl-pyrazol-3-yl)methyl]amino]pyrimidin-4-yl]amino]methyl]phenyl]acetamide], the IC50 in experiment [1] was under 500 nM. Besides, the “Gal4 activity range @ 1 μM (% inhibition)” value in experiment [2] (1 μM test compound, HEK293t RORγ reporter cells, 24 hour, 1 µM) is on record as over 50%. In addition, the “Gal4 activity range @ 0.1 μM (% inhibition)” value in experiment [2] is over 0 % inhibition.

Regarding `O=S(=O)(Nc1ccc(CNc2ncnc(N(Cc3ccc(C(F)(F)F)cc3)C3CC3)c2F)cc1)C(F)(F)F` [Example A60, N-[4-[[[6-[cyclopropyl-[[4-(trifluoromethyl)phenyl]methyl]amino]-5-fluoro-pyrimidin-4-yl]amino]methyl]phenyl]-1,1,1-trifluoro-methanesulfonamide], the concentration for half-maximal inhibition (IC50) in experiment [1] is under 500 nM. For the same compound, the inhibition at 1 µM in experiment [2] (setting [3]) was over 80%. Moreover, in experiment [2], the “Gal4 activity range @ 0.1 μM (% inhibition)” value is given as over 0 % inhibition.

Compound `O=S(=O)(CC(F)(F)F)NC1CCC(CNc2ncnc(N(Cc3ccc(C(F)(F)F)cc3)C3CC3)c2F)CC1` (stereo not drawn) [x, N-[4-[[[6-[cyclopropyl-[[4-(trifluoromethyl)phenyl]methyl]amino]-5-fluoro-pyrimidin-4-yl]amino]methyl]cyclohexyl]-2,2,2-trifluoro-ethanesulfonamide] displayed a concentration for half-maximal inhibition (IC50) in experiment [1] of under 500 nM. Besides, the inhibition at 1 µM in experiment [2] (setting [3]) was over 50%. For the same compound, the “Gal4 activity range @ 0.1 μM (% inhibition)” value in experiment [2] is recorded as over 20 % inhibition.

Take `NC(=O)Cc1ccc(CNc2ncnc3c2ccn3Cc2ccc(C(F)(F)F)cc2)cc1` [Example A164, 2-[4-[[[7-[[4-(trifluoromethyl)phenyl]methyl]pyrrolo[2,3-d]pyrimidin-4-yl]amino]methyl]phenyl]acetamide]: the IC50 in experiment [1] was under 1000 nM. Moreover, the inhibition at 1 µM in experiment [2] (setting [3]) is over 50%. In addition, the “Gal4 activity range @ 0.1 μM (% inhibition)” value in experiment [2] is reported as over 20 % inhibition.

As to `CS(=O)(=O)N1CCC2(CC2Nc2ncnc(N(Cc3ccc(C(F)(F)F)cc3)C3CC3)c2F)C1` (stereo not drawn) [Example A172, N6-cyclopropyl-5-fluoro-N4-(6-methylsulfonyl-6-azaspiro[2.4]heptan-2-yl)-N6-[[4-(trifluoromethyl)phenyl]methyl] pyrimidine-4,6-diamine], the concentration for half-maximal inhibition (IC50) in experiment [1] was under 2000 nM. Further, the inhibition at 1 µM in experiment [2] (setting [3]) was over 80%. Moreover, in experiment [2], the “Gal4 activity range @ 0.1 μM (% inhibition)” value is reported as over 20 % inhibition.

Take `NC(=O)Cc1ccc(CNc2ncnc(N(Cc3ccc(C(F)(F)F)cc3)CC3CC3)c2F)cc1` [Example A18, 2-[4-[[[6-[cyclopropylmethyl-[[4-(trifluoromethyl)phenyl]methyl]amino]-5-fluoro-pyrimidin-4-yl]amino]methyl]phenyl]acetamide]: the half-maximal inhibitory concentration (IC50) in experiment [1] was under 500 nM. In addition, the inhibition at 1 µM in experiment [2] (setting [3]) is over 80%. In addition, the “Gal4 activity range @ 0.1 μM (% inhibition)” value in experiment [2] is on record as over 50 % inhibition.

For the compound `CS(=O)(=O)N1CC2CC2(CNc2ncnc(N(Cc3ccc(C(F)(F)F)cc3)C3CC3)c2F)C1` (stereo not drawn) [Example A174, N6-cyclopropyl-5-fluoro-N4-[(3-methylsulfonyl-3-azabicyclo[3.1.0]hexan-5-yl)methyl]-N6-[[4-(trifluoromethyl)phenyl]methyl] pyrimidine-4,6-diamine], the IC50 in experiment [1] is under 500 nM. Moreover, the inhibition at 1 µM in experiment [2] (setting [3]) was over 80%. Besides, in experiment [2], the “Gal4 activity range @ 0.1 μM (% inhibition)” value is on record as over 20 % inhibition.

For `Cc1cccc(Cl)c1CN(c1ncnc(NCc2ccc(CC(N)=O)cc2)c1F)C1CC1` [Example A67, 2-[4-[[[6-[(2-chloro-6-methyl-phenyl)methyl-cyclopropyl-amino]-5-fluoro-pyrimidin-4-yl]amino]methyl]phenyl]acetamide], the IC50 in experiment [1] is under 500 nM. In addition, the inhibition at 1 µM in experiment [2] (setting [3]) was over 50%. Besides, the “Gal4 activity range @ 0.1 μM (% inhibition)” value in experiment [2] is over 20 % inhibition.

In turn, `O=C(O)CC1(CNc2ncnc(N(Cc3ccc(C(F)(F)F)cc3)C3CC3)c2F)CCOCC1` [Example A79, 2-[4-[[[6-[cyclopropyl-[[4-(trifluoromethyl)phenyl]methyl]amino]-5-fluoro-pyrimidin-4-yl]amino]methyl]tetrahydropyran-4-yl]acetic acid] displayed a half-inhibitory concentration (IC50) in experiment [1] of under 1000 nM. Further, the inhibition at 1 µM in experiment [2] (setting [3]) was over 20%.

For the compound `NC(=O)Cc1ccc(CNc2ncnc(N(Cc3ccccc3)C3CC3)c2F)cc1` [Example A42, 2-[4-[[[6-[benzyl(cyclopropyl)amino]-5-fluoro-pyrimidin-4-yl]amino]methyl]phenyl]acetamide], the IC50 in experiment [1] is under 500 nM. Further, in experiment [2] (setting [3]), the inhibition at 1 µM was over 50%. Moreover, the “Gal4 activity range @ 0.1 μM (% inhibition)” value in experiment [2] is given as over 20 % inhibition.

In experiment [1], `O=S(=O)(Nc1ccc(CNc2ncnc(N(Cc3ccc(C(F)(F)F)cc3)C3CC3)c2F)cc1)C(F)F` [Example A91, N-[4-[[[6-[cyclopropyl-[[4-(trifluoromethyl)phenyl]methyl]amino]-5-fluoro-pyrimidin-4-yl]amino]methyl]phenyl]-1,1-difluoro-methanesulfonamide] displayed an IC50 of under 500 nM. For the same compound, the inhibition at 1 µM in experiment [2] (setting [3]) was over 80%. Further, the “Gal4 activity range @ 0.1 μM (% inhibition)” value in experiment [2] is over 80 % inhibition.

In the case of `Fc1c(NCc2ccc(Cc3nnn[nH]3)cc2)ncnc1N(Cc1ccc(-n2cccn2)cc1)C1CC1` [Example A88, N4-cyclopropyl-5-fluoro-N4-[(4-pyrazol-1-ylphenyl)methyl]-N6-[[4-(1H-tetrazol-5-ylmethyl)phenyl]methyl]pyrimidine-4,6-diamine], in experiment [1], the IC50 is under 500 nM. Also, in experiment [2] (setting [3]), the inhibition at 1 µM was over 50%. In experiment [2], the “Gal4 activity range @ 0.1 μM (% inhibition)” value was over 0 % inhibition.

For `COc1ccc2cc(CN(C)c3ncnc(NCc4ccc(CC(N)=O)cc4)c3F)ccc2c1` [Example A120, 2-[4-[[[5-fluoro-6-[(6-methoxy-2-naphthyl)methyl-methyl-amino]pyrimidin-4-yl]amino]methyl]phenyl]acetamide], the IC50 in experiment [1] is under 500 nM. In addition, the inhibition at 1 µM in experiment [2] (setting [3]) was over 80%. In experiment [2], the “Gal4 activity range @ 0.1 μM (% inhibition)” value is on record as over 20 % inhibition.

In the case of `CS(=O)(=O)N1CCC2(CC1)CC2Nc1ncnc(N(Cc2ccc(C(F)(F)F)cc2)C2CC2)c1F` (stereo not drawn) [Example A169, N6-cyclopropyl-5-fluoro-N4-(6-methylsulfonyl-6-azaspiro[2.5]octan-2-yl)-N6-[[4-(trifluoromethyl)phenyl]methyl] pyrimidine-4,6-diamine], in experiment [1], the half-maximal inhibitory concentration (IC50) is under 500 nM. Besides, the inhibition at 1 µM in experiment [2] (setting [3]) was over 80%. Further, the “Gal4 activity range @ 0.1 μM (% inhibition)” value in experiment [2] is given as over 80 % inhibition.

For `CS(=O)(=O)N1CCC(C2(Nc3ncnc(N(Cc4ccc(C(F)(F)F)cc4)C4CC4)c3F)CC2)CC1` [Example A165, N6-cyclopropyl-5-fluoro-N4-[1-(1-methylsulfonyl-4-piperidyl)cyclopropyl]-N6-[[4-(trifluoromethyl)phenyl]methyl] pyrimidine-4,6-diamine], in experiment [1], the concentration for half-maximal inhibition (IC50) was under 500 nM. Further, in experiment [2] (setting [3]), the inhibition at 1 µM was over 80%. The “Gal4 activity range @ 0.1 μM (% inhibition)” value in experiment [2] is listed as over 50 % inhibition.

As to `NC(=O)Cc1ccc(CNc2ncnc(N(Cc3ccccc3Cl)C3CC3)c2F)cc1` [Example A66, 2-[4-[[[6-[(2-chlorophenyl)methyl-cyclopropyl-amino]-5-fluoro-pyrimidin-4-yl]amino]methyl]phenyl]acetamide], the 50% inhibitory concentration (IC50) in experiment [1] was under 500 nM. Further, the inhibition at 1 µM in experiment [2] (setting [3]) was over 50%. For the same compound, in experiment [2], the “Gal4 activity range @ 0.1 μM (% inhibition)” value is recorded as over 20 % inhibition.
